Paper PMC11156613 (Journal of Advanced Research, 2023)
Where two headings read alike, the source gives them in different places.

Tests used:
recombinant human HDAC8 = molecular target: T1, recombinant human HDAC8 (Homo sapiens, UniProt Q9BY41); assay: In vitro HDAC8 homogenous fluorescence assay; type: biochemical
T1 sequence (Q9BY41 1-377): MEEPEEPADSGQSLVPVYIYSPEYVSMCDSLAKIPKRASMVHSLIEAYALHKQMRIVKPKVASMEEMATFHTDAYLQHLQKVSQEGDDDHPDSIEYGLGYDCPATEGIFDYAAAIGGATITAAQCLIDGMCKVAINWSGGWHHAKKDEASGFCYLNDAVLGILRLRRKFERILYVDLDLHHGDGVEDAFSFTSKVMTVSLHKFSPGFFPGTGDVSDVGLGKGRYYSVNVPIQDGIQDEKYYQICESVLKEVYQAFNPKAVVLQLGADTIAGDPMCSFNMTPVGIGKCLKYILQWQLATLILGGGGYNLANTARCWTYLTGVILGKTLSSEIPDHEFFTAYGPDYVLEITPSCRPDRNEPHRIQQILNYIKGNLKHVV

HEL cells = assay: Apoptosis induction, annexin-V/PI flow cytometry; type: cell-based, human; details: 24 h
Recombinant human HDAC6 = molecular target: T2, Recombinant human HDAC6 (Homo sapiens, UniProt Q9UBN7); assay: In vitro HDAC enzymatic assay, HDAC6; type: biochemical
T2 sequence (Q9UBN7 1-1215): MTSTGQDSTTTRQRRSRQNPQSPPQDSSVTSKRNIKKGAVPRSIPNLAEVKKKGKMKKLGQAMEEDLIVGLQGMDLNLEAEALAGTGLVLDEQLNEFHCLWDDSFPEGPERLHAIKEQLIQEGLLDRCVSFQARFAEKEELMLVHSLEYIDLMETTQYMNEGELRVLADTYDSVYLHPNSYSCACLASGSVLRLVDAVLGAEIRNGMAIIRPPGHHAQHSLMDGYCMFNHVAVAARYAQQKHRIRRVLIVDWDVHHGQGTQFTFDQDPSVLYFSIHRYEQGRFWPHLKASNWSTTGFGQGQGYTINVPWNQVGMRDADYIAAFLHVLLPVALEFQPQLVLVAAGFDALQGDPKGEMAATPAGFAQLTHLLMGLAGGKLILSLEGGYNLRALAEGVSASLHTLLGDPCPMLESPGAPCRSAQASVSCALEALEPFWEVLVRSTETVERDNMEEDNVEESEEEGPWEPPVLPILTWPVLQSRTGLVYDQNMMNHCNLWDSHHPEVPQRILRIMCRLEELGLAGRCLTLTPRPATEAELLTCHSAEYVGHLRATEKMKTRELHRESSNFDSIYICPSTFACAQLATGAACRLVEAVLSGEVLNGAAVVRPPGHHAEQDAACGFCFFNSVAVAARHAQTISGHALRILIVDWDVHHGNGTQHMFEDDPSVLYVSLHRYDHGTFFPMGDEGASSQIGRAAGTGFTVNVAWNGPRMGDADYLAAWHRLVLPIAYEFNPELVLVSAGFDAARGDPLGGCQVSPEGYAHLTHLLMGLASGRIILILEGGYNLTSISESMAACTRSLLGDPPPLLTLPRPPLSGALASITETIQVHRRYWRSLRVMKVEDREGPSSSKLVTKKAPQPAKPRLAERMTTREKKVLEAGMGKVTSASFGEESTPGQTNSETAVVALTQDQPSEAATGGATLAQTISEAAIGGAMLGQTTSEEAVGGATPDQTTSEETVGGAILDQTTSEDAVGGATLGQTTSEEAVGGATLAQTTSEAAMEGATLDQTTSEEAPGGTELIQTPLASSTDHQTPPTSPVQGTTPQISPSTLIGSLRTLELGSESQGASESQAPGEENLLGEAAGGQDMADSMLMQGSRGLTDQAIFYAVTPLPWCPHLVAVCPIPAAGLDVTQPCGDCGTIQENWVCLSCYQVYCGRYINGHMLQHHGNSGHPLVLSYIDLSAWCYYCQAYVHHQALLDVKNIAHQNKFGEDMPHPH

Recombinant human HDAC2 = Recombinant human HDAC2 (Homo sapiens, UniProt Q92769); assay: In vitro HDAC enzymatic assay, HDAC2; type: biochemical
Chain of Recombinant human HDAC2 (Q92769 whole entry): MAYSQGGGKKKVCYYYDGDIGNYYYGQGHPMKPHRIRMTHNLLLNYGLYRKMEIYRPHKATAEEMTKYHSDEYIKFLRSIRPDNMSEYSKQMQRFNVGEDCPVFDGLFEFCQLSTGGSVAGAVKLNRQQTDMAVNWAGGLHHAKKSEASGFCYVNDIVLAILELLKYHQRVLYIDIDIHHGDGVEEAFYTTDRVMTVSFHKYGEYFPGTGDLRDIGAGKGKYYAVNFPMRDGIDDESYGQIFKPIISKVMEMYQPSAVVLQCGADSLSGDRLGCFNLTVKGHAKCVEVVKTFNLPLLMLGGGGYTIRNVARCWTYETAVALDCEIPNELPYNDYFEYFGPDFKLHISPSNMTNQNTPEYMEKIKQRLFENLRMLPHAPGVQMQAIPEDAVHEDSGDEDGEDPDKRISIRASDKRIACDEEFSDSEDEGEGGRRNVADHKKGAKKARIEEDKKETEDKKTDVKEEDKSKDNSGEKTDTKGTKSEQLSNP

Recombinant human HDAC11 = molecular target: T3, Recombinant human HDAC11 (Homo sapiens, UniProt Q96DB2); assay: In vitro HDAC11 inhibition assay; type: biochemical
T3 sequence (Q96DB2 1-347): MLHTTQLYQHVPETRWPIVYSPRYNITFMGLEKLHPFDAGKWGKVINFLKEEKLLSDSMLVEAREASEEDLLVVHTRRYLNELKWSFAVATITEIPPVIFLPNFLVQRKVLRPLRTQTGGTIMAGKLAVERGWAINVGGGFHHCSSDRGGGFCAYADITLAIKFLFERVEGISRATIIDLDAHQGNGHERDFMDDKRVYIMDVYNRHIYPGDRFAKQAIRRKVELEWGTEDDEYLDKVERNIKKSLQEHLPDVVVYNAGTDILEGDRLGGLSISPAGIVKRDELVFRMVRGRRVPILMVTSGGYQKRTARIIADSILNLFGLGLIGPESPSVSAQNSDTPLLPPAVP

[1] = molecular target: Recombinant human HDAC3/NCOR1 (Homo sapiens, UniProt O15379); assay: In vitro HDAC enzymatic assay, HDAC3
Chain of Recombinant human HDAC3/NCOR1 (O15379 whole entry): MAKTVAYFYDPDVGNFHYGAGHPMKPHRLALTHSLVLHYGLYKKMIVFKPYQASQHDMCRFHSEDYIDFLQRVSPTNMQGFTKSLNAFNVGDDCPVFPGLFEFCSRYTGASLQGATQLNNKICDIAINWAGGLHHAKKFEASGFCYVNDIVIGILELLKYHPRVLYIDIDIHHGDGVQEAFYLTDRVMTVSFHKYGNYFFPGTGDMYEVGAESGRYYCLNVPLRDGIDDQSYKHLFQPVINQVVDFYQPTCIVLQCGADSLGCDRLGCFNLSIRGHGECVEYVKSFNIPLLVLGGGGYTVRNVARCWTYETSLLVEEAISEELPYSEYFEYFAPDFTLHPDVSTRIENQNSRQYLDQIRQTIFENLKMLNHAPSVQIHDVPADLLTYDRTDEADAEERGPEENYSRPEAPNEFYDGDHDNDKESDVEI
Chain of Recombinant human HDAC3/NCOR1 (O75376 395-489 partner limits assumed): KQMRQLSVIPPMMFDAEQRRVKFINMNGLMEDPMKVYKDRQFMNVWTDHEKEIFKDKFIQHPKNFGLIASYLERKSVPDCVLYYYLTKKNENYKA

Recombinant human HDAC1 = Recombinant human HDAC1 (Homo sapiens, UniProt Q13547); assay: In vitro HDAC enzymatic assay, HDAC1; type: biochemical
Chain of Recombinant human HDAC1 (Q13547 whole entry): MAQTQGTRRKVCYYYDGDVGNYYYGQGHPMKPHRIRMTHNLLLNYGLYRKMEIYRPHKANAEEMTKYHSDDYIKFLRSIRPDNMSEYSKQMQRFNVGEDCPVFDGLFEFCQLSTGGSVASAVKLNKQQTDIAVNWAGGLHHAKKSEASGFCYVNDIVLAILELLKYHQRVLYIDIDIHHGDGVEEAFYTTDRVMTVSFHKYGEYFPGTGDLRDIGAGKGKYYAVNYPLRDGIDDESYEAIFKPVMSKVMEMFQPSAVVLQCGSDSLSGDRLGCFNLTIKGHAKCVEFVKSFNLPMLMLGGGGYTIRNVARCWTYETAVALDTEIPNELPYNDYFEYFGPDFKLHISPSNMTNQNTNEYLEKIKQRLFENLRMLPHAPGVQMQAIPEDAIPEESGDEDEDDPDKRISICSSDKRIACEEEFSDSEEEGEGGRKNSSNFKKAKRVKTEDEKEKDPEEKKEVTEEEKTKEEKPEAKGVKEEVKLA

IC50 (recombinant human HDAC8; read-out: HDAC8 IC50, ZMAL 10.5 μM, 90 min, 37 °C) [µM]	IC50 (Recombinant human HDAC6; read-out: HDAC6 IC50, Abz-SRGGK(thio-TFA)FFRR-NH2 substrate) [µM]	IC50 (Recombinant human HDAC2; read-out: HDAC2 IC50, Ac-RHKK(Acetyl)-AMC substrate, 37 °C) [µM]	IC50 (Recombinant human HDAC11; read-out: HDAC11 IC50) [µM]	IC50 ([1]; read-out: HDAC3 IC50, Ac-RHKK(Acetyl)-AMC substrate, 37 °C) [µM]	IC50 (Recombinant human HDAC1; read-out: HDAC1 IC50) [µM]	IC50 (Recombinant human HDAC1; read-out: HDAC1 IC50, Ac-RHKK(Acetyl)-AMC substrate, 37 °C) [µM]	IC50 (recombinant human HDAC8) [µM]	IC50 (Recombinant human HDAC6) [µM]	fold more potent inhibitor of HDAC6 than KH9 and KH16 (Recombinant human HDAC6; from Table 1 IC50 values)	IC50 (Recombinant human HDAC2) [µM]	IC50 (Recombinant human HDAC11) [µM]	IC50 [1] [µM]	IC50 (Recombinant human HDAC1; HDAC1 IC50, Ac-RHKK(Acetyl)-AMC substrate, 37 °C) [µM]	IC50 (Recombinant human HDAC1; HDAC1 IC50, as stated in text) [µM]	SMILES	concentration at which apoptosis induction starts (HEL cells)
0.11 ± 0.01	0.14 ± 0.01	0.022 ± 0.001	1.5 ± 0.1	0.019 ± 0.001	0.009	0.0089 ± 0.0005	–	–	–	–	–	–	–	–	COc1ccc(/C=C/CN2CCN(c3ncc(C(=O)NO)cn3)CC2)cc1.Cl [KH9, (E)-N-Hydroxy-2-(4-(3-(4-methoxyphenyl)allyl)piperazin-1-yl)pyrimidine-5-carboxamide Hydrchloride]	approximately 50 nM
–	–	–	–	–	–	–	0.049 ± 0.002	0.025 ± 0.001	at least 10 fold	0.026 ± 0.001	1 ± 0.1	0.02 ± 0.001	0.0094 ± 0.0005	0.009	Cl.Cn1cc(CN2CCN(c3ncc(C(=O)NO)cn3)CC2)c2ccccc21 [KH29, N-hydroxy-2-(4-((1-methyl-1H-indol-3-yl)methyl)piperazin-1-yl)pyrimidine-5-carboxamide Hydrochloride]	55 nM
